What was measured:
Leukotriene B4 receptor [1] = target: T1, Leukotriene B4 receptor (Homo sapiens, UniProt Q9NPC1+Q15722); assay: Antagonist activity against LTB4 receptor in human U-937 cells at 0.00001 M incubated for 40 mins by liquid scintillation counting method; assay type: cell-based; conditions: dose 10 µM
Leukotriene B4 receptor [2] = target: T1, Leukotriene B4 receptor; assay: Antagonist activity against LTB4 receptor in human U-937 cells at 0.0000001 M incubated for 40 mins by liquid scintillation counting method; assay type: cell-based; conditions: dose 100 nM
Leukotriene B4 receptor [3] = target: T1, Leukotriene B4 receptor; assay: Antagonist activity against LTB4 receptor (unknown origin) assessed as inhibition constant; assay type: protein assay
Rattus norvegicus [4] = assay: Antinflammatory activity against carrageenan induced pedal edema rat model assessed as average pedal volume at 10 mg/kg,po administration and measured after 1 hr (reference value: 1.82 +/- 0.04 mL); assay type: functional
Rattus norvegicus [5] = assay: Antinflammatory activity against carrageenan induced pedal edema rat model assessed as average pedal volume at 10 mg/kg,po administration and measured after 2 hrs (reference value: 2.2 +/- 0.1 mL); assay type: functional
Rattus norvegicus [6] = assay: Antinflammatory activity against carrageenan induced pedal edema rat model assessed as average pedal volume at 10 mg/kg,po administration and measured after 4 hrs (reference value: 2.41 +/- 0.05 mL); assay type: functional
Rattus norvegicus [7] = assay: Antinflammatory activity against carrageenan induced pedal edema rat model assessed as inflammation at 10 mg/kg,po administration and measured after 1 hr (reference value: 20.17 +/- 2.8 %); assay type: functional
Rattus norvegicus [8] = assay: Antinflammatory activity against carrageenan induced pedal edema rat model assessed as inflammation at 10 mg/kg,po administration and measured after 2 hrs (reference value: 45.39 +/- 6.82 %); assay type: functional
Rattus norvegicus [9] = assay: Antinflammatory activity against carrageenan induced pedal edema rat model assessed as inflammation at 10 mg/kg,po administration and measured after 4 hrs (reference value: 58.75 +/- 3.5 %); assay type: functional
Rattus norvegicus [10] = assay: Antinflammatory activity against carrageenan induced pedal edema rat model assessed as reduction in edema at 10 mg/kg,po administration and measured after 1 hr relative to control; assay type: functional; parameters: scale not given: the % may be the effect or the level left
Rattus norvegicus [11] = assay: Antinflammatory activity against carrageenan induced pedal edema rat model assessed as reduction in edema at 10 mg/kg,po administration and measured after 2 hrs relative to control; assay type: functional; parameters: scale not given: the % may be the effect or the level left
Rattus norvegicus [12] = assay: Antinflammatory activity against carrageenan induced pedal edema rat model assessed as reduction in edema at 10 mg/kg,po administration and measured after 4 hrs relative to control; assay type: functional; parameters: scale not given: the % may be the effect or the level left
Leukotriene B4 receptor [13] = target: T1, Leukotriene B4 receptor; assay: Antagonist activity against LTB4 receptor in human U-937 cells incubated for 40 mins by liquid scintillation counting method; assay type: cell-based
Rattus norvegicus [14] = assay: Antinflammatory activity against carrageenan induced pedal edema rat model assessed as average pedal volume at 30 mg/kg,po administration and measured after 1 hr (reference value: 1.82 +/- 0.04 mL); assay type: functional
Rattus norvegicus [15] = assay: Antinflammatory activity against carrageenan induced pedal edema rat model assessed as average pedal volume at 30 mg/kg,po administration and measured after 2 hrs (reference value: 2.2 +/- 0.1 mL); assay type: functional
Rattus norvegicus [16] = assay: Antinflammatory activity against carrageenan induced pedal edema rat model assessed as average pedal volume at 30 mg/kg,po administration and measured after 4 hrs (reference value: 2.41 +/- 0.05 mL); assay type: functional
Rattus norvegicus [17] = assay: Antinflammatory activity against carrageenan induced pedal edema rat model assessed as inflammation at 30 mg/kg,po administration and measured after 1 hr (reference value: 20.17 +/- 2.8 %); assay type: functional
Rattus norvegicus [18] = assay: Antinflammatory activity against carrageenan induced pedal edema rat model assessed as inflammation at 30 mg/kg,po administration and measured after 2 hrs (reference value: 45.39 +/- 6.82 %); assay type: functional
Rattus norvegicus [19] = assay: Antinflammatory activity against carrageenan induced pedal edema rat model assessed as inflammation at 30 mg/kg,po administration and measured after 4 hrs (reference value: 58.75 +/- 3.5 %); assay type: functional
Rattus norvegicus [20] = assay: Antinflammatory activity against carrageenan induced pedal edema rat model assessed as reduction in edema at 30 mg/kg,po administration and measured after 1 hr relative to control; assay type: functional; parameters: scale not given: the % may be the effect or the level left
Rattus norvegicus [21] = assay: Antinflammatory activity against carrageenan induced pedal edema rat model assessed as reduction in edema at 30 mg/kg,po administration and measured after 2 hrs relative to control; assay type: functional; parameters: scale not given: the % may be the effect or the level left
Rattus norvegicus [22] = assay: Antinflammatory activity against carrageenan induced pedal edema rat model assessed as reduction in edema at 30 mg/kg,po administration and measured after 4 hrs relative to control; assay type: functional; parameters: scale not given: the % may be the effect or the level left

T1 sequence (Q15722 whole entry, looked up): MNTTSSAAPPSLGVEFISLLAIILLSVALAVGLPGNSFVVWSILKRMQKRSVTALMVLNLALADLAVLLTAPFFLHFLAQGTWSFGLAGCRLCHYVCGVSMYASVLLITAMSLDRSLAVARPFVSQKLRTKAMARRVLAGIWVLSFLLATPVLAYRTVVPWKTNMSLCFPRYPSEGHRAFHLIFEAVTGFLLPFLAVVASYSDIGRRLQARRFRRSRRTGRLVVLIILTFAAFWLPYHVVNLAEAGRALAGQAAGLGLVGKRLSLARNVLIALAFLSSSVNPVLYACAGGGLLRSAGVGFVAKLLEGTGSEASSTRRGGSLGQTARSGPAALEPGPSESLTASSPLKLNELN
T1 sequence (Q9NPC1 whole entry, looked up): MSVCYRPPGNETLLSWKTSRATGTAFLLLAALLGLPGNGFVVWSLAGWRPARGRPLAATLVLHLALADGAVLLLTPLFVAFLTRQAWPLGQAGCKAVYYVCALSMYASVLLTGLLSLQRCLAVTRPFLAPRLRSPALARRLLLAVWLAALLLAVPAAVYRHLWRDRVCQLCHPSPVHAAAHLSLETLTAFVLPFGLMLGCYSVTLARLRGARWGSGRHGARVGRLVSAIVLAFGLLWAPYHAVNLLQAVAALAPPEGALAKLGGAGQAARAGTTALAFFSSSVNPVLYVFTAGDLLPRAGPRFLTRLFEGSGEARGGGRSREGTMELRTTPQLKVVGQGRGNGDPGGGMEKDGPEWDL

Compound	inhibition (Leukotriene B4 receptor [2])	inhibition (Leukotriene B4 receptor [1]; filed as antagonist)	IC50 (Leukotriene B4 receptor [13])	other results
CN(CCc1ccccc1)C(=O)C1=C(C(=O)O)Oc2cccc(OCc3ccccc3)c2O1	6%			inhibition (Leukotriene B4 receptor [1]): 39%
CC1(CCOCc2ccccc2)OC(=O)C2=C1Oc1cc(OCc3ccccc3)ccc1O2 (configuration not stated)	< 10%			inhibition (Leukotriene B4 receptor [1]): 13%
CCCc1c(OCCCOc2ccc(C(=O)NC)c(OC)c2CC2CC2)ccc2c1O[C@H](CCC(=O)O)CC2				Ki (Leukotriene B4 receptor [3]): 1.3 nM
CC(OC/C=C/c1ccccc1)C1=C(C(=O)O)Oc2ccc(OCc3ccccc3)cc2O1 (configuration not stated)	20%	92%		
COc1ccc2c(c1)c(CC(=O)O)c(C)n2C(=O)c1ccc(Cl)cc1 [INDOMETHACIN]				Activity (Rattus norvegicus [4]): 1.65 mL; Activity (Rattus norvegicus [5]): 1.85 mL; Activity (Rattus norvegicus [6]): 2.06 mL; Activity (Rattus norvegicus [7]): 11.1%; Activity (Rattus norvegicus [8]): 24.64%; Activity (Rattus norvegicus [9]): 40.19%; Activity (Rattus norvegicus [10]): 45%; Activity (Rattus norvegicus [11]): 45.3%; Activity (Rattus norvegicus [12]): 31.6%
CCCc1ccccc1OCCCCCCc1cccc(OCCCCC(=O)O)c1CCC(=O)O				Ki (Leukotriene B4 receptor [3]): 1 nM
CCN(CC)C(=O)C1=C(C(C)OCc2ccccc2)Oc2cc(OCc3ccccc3)ccc2O1 (configuration not stated)	< 10%	74%		
CN(CCc1ccccc1)C(=O)C1=COc2ccc(OCc3ccccc3)cc2O1	0%	40%	> 10000 nM	
CN(CCc1ccccc1)C(=O)C1=C(C(=O)O)Oc2c(OCc3ccccc3)cccc2O1	4.8%	94%	2700 nM	
CC(OCc1ccc2ccccc2c1)C1=C(C(=O)O)Oc2ccc(OCc3ccccc3)cc2O1 (configuration not stated)	0%	74%		
CC(OC/C=C/c1ccccc1)C1=C(C(=O)O)Oc2cc(OCc3ccccc3)ccc2O1 (configuration not stated)	0%	82%		
O=C(O)C1=C(C(=O)N2CCC(c3ccccc3)CC2)Oc2ccc(OCc3ccccc3)cc2O1				inhibition (Leukotriene B4 receptor [1]): 29%
CN(CCc1ccccc1)C(=O)C1=C(C(=O)O)Oc2cc(OCc3ccc4ccccc4c3)ccc2O1	18%	97%	710 nM	
CC(OCc1ccccc1)C1=C(C(=O)O)Oc2cc(OCc3ccccc3)ccc2O1 (configuration not stated)	0%	82%		
CC(OCc1ccccc1)C1=C(C(=O)O)Oc2ccc(OCc3ccccc3)cc2O1 (configuration not stated)	< 10%	73%		

Continued, in another order:

inhibition (Leukotriene B4 receptor [2])	inhibition (Leukotriene B4 receptor [1]; filed as antagonist)	IC50 (Leukotriene B4 receptor [13])	Compound	other results
25%	95%	439 nM	CN(CCc1ccccc1)C(=O)C1=C(C(=O)O)Oc2ccc(OCc3ccccc3)cc2O1	
0%	62%	5610 nM	O=C(O)C1=C(C(=O)N2CCC(Cc3ccccc3)CC2)Oc2cccc(OCc3ccccc3)c2O1	
20%	98%	477 nM	O=C(O)C1=C(C(=O)N2CCC(Cc3ccccc3)CC2)Oc2ccc(OCc3ccccc3)cc2O1	
12%			O=C(O)C1=C(C(=O)N2CCC(c3ccccc3)CC2)Oc2cc(OCc3ccccc3)ccc2O1	inhibition (Leukotriene B4 receptor [1]): 33%
27%	78%		O=C(O)C1=C(C(=O)N2CCC(Cc3ccccc3)CC2)Oc2cc(OCc3ccccc3)ccc2O1	
38%	99%	288 nM	CN(CCc1ccccc1)C(=O)C1=C(C(=O)O)Oc2cc(OCc3ccccc3)ccc2O1	Activity (Rattus norvegicus [14]): 1.66 mL; Activity (Rattus norvegicus [15]): 2.04 mL; Activity (Rattus norvegicus [16]): 2.42 mL; Activity (Rattus norvegicus [17]): 12.17%; Activity (Rattus norvegicus [18]): 39.05%; Activity (Rattus norvegicus [19]): 63.63%; Activity (Rattus norvegicus [20]): 39.7%; Activity (Rattus norvegicus [21]): 16.2%; Activity (Rattus norvegicus [22]): 8.3%

— ChEMBL document CHEMBL5360576, “New and promising type of leukotriene B4 (LTB4) antagonists based on the 1,4-benzodioxine structure” (Eur J Med Chem, 2023)
